Eight compounds from PubChem BioAssay (NCI) can be followed below.

Among the test systems are MOLT-4 leukemia; HT29 colon; SNB-75 CNS; HL-60(TB) leukemia; OVCAR-4 ovarian; NCI-H226 lung; TK-10 renal; 786-0 renal; OVCAR-8 ovarian; OVCAR-5 ovarian.
What all share (assay): NCI anticancer screen, dose series, 48 h

“And” between values parts separate entries of the source, which are not always exact repeats. Equal entries are not always repeated.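 Briefly, cells in 96-well plates were exposed to five compound concentrations for 48 h, and endpoints were estimated by linear interpolation. The concentration for 50% growth inhibition is given as GI50. TGI is the concentration that stops growth completely.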

As for `C=CC(=O)Nc1cccc(Nc2nc(Nc3ccc(OCCOC)cc3)ncc2F)c1`, the GI50 was 3.97 µM in the assay on MOLT-4 leukemia; 2.6 µM with HT29 colon; 0.341 µM with SNB-75 CNS; 7.7 µM in the assay with HL-60(TB) leukemia; 0.824 µM in the assay with OVCAR-4 ovarian; 0.914 µM in the assay with NCI-H226 lung. Also, the GI50 in the assay with TK-10 renal was 0.99 µM; in the assay with 786-0 renal, 0.887 µM; with OVCAR-8 ovarian, 3.19 µM; in the assay with OVCAR-5 ovarian, 1.89 µM. Further, the TGI in the assay on MOLT-4 leukemia turned out to be 33.6 µM; in the assay with HT29 colon it was 16.3 µM; in the assay with SNB-75 CNS, 2.44 µM; with HL-60(TB) leukemia, 41.7 µM; with OVCAR-4 ovarian, 17.1 µM; in the assay with NCI-H226 lung it was 11.6 µM. In addition, the TGI in the assay with TK-10 renal stood at 3.86 µM; with 786-0 renal, 13.1 µM; in the assay with OVCAR-8 ovarian it was 45.1 µM; in the assay on OVCAR-5 ovarian, 21 µM.
With `CC(=O)O[C@H]1C(=O)[C@@]2(C)[C@H]([C@H](OC(=O)c3ccccc3)[C@]3([O-])C[C@H](OC(=O)[C@H]([O-])[C@@H](NC(=O)c4ccccc4)c4ccccc4)C(C)=C1C3(C)C)[C@]1(OC(C)=O)CO[C@@H]1C[C@@H]2[O-].[Fe+3]`, the TGI in the assay with MOLT-4 leukemia is 65 µM and > 100 µM; with SNB-75 CNS, 0.274 µM and 0.505 µM; in the assay with HL-60(TB) leukemia, 0.301 µM; with OVCAR-4 ovarian, more than 100 µM; in the assay on NCI-H226 lung it was 65 µM and 70.7 µM; in the assay on TK-10 renal, 65 µM and > 100 µM. The TGI in the assay with 786-0 renal is 49.1 µM and > 100 µM; in the assay with OVCAR-8 ovarian, 15.5 µM and 27.3 µM; in the assay with OVCAR-5 ovarian, 11.1 µM and > 100 µM. The GI50 in the assay on HT29 colon was 0.0236 µM and 0.0328 µM; with SNB-75 CNS it was 0.0222 µM and 0.023 µM; in the assay with HL-60(TB) leukemia it was 0.0639 µM; in the assay on OVCAR-4 ovarian, 0.719 µM; with NCI-H226 lung, 0.227 µM and 0.768 µM; with TK-10 renal it was 0.591 µM and 0.658 µM. Moreover, the GI50 in the assay on 786-0 renal was 0.261 µM and 2.24 µM; in the assay with OVCAR-8 ovarian it was 0.0971 µM and 0.0721 µM; in the assay with OVCAR-5 ovarian, 0.88 µM.
For `COc1ccc(NC2=C(Br)C(=O)C(C)=C(C)C2=O)cc1`, the GI50 with MOLT-4 leukemia is 2.67 µM; with HT29 colon it was 27.4 µM; in the assay on SNB-75 CNS, 11 µM; in the assay with HL-60(TB) leukemia, 2.34 µM; with OVCAR-4 ovarian, 1.6 µM; in the assay with NCI-H226 lung it was 13 µM. In addition, the GI50 was 25.2 µM in the assay on TK-10 renal, 15.7 µM in the assay with 786-0 renal, 2.22 µM in the assay with OVCAR-8 ovarian and 5.07 µM in the assay with OVCAR-5 ovarian. Further, the TGI with MOLT-4 leukemia is more than 100 µM; with HT29 colon it was 79.6 µM; in the assay on SNB-75 CNS, 23.5 µM; in the assay on HL-60(TB) leukemia, 6.82 µM; in the assay on OVCAR-4 ovarian it was 2.97 µM; in the assay on NCI-H226 lung, 27.6 µM. Also, the TGI stood at 40.9 µM in the assay with TK-10 renal, 29.9 µM with 786-0 renal, 5.31 µM in the assay with OVCAR-8 ovarian and 21.8 µM in the assay on OVCAR-5 ovarian.
Regarding `O=C1N[C@@H](O)[C@@H]2ON=C(c3ccccc3)[C@H]12`, the TGI with MOLT-4 leukemia, in the assay on HT29 colon, with SNB-75 CNS, with HL-60(TB) leukemia, with OVCAR-4 ovarian and in the assay on NCI-H226 lung was more than 100 µM each time. Moreover, the TGI with TK-10 renal, in the assay on 786-0 renal, in the assay with OVCAR-8 ovarian and in the assay with OVCAR-5 ovarian was more than 100 µM throughout.
In the case of `COc1ccc2c(c1)C=CC(C#N)N2C(=O)c1ccccc1` (centres undefined), the GI50 is less than 0.01 µM in the assay on MOLT-4 leukemia; less than 0.01 µM with HT29 colon; less than 0.01 µM in the assay on SNB-75 CNS; less than 0.01 µM in the assay with HL-60(TB) leukemia; 0.0283 µM with OVCAR-4 ovarian; 4.16 µM with NCI-H226 lung. The GI50 in the assay on TK-10 renal was 33.7 µM; in the assay on 786-0 renal, less than 0.01 µM; in the assay on OVCAR-8 ovarian it was less than 0.01 µM. In addition, the TGI with MOLT-4 leukemia is more than 100 µM; in the assay on HT29 colon, more than 42.1 µM; in the assay on SNB-75 CNS, more than 100 µM; in the assay with OVCAR-4 ovarian, more than 100 µM; in the assay on NCI-H226 lung it was more than 100 µM; in the assay on TK-10 renal, more than 100 µM. Besides, the TGI with 786-0 renal, with OVCAR-8 ovarian and with OVCAR-5 ovarian was more than 100 µM in each case.
For the compound `COc1cc(-c2cn(C)c(=O)c(C)c2C)cc(OC)c1CN1CC[C@H](N2CCN(c3ccc(N[C@H]4CCC(=O)NC4=O)cc3F)CC2)C(F)(F)C1`, the GI50 is 21.2 µM in the assay on MOLT-4 leukemia; 11.4 µM in the assay on HT29 colon; 5.2 µM in the assay with SNB-75 CNS; 2.92 µM with HL-60(TB) leukemia; 12.1 µM in the assay on OVCAR-4 ovarian; 13.7 µM with NCI-H226 lung. For the same compound, the GI50 was 12 µM with TK-10 renal, 12.8 µM in the assay on 786-0 renal, 11.2 µM in the assay on OVCAR-8 ovarian and 15.8 µM in the assay with OVCAR-5 ovarian. Besides, the TGI in the assay on MOLT-4 leukemia was more than 100 µM; in the assay with HT29 colon, 27.2 µM; in the assay on SNB-75 CNS it was 21.9 µM; in the assay with HL-60(TB) leukemia it was more than 100 µM; in the assay with OVCAR-4 ovarian, 26.9 µM; with NCI-H226 lung, 29.1 µM. Also, the TGI in the assay on TK-10 renal was determined as 28.8 µM; with 786-0 renal, 36.6 µM; in the assay with OVCAR-8 ovarian it was 25.7 µM; in the assay with OVCAR-5 ovarian, 31.5 µM.
On to `CC(=O)[CH-]C(C)=O.CC(=O)[CH-]C(C)=O.N=CC=N.[Sn+2]`, for which the GI50 with MOLT-4 leukemia was 2.03 µM; with HT29 colon it was 3.41 µM; in the assay with SNB-75 CNS, 3.7 µM; with HL-60(TB) leukemia, 2.09 µM; in the assay on OVCAR-4 ovarian it was 2.62 µM; in the assay on NCI-H226 lung, 9.9 µM. The GI50 in the assay on TK-10 renal is 4.48 µM; with 786-0 renal, 1.76 µM; in the assay with OVCAR-8 ovarian, 2.11 µM; in the assay with OVCAR-5 ovarian, 7.29 µM. Moreover, the TGI in the assay on MOLT-4 leukemia came to 7.47 µM; in the assay on HT29 colon, 10.8 µM; in the assay on SNB-75 CNS, 13.7 µM; in the assay on HL-60(TB) leukemia it was 15.3 µM; in the assay with OVCAR-4 ovarian it was 10.5 µM; in the assay with NCI-H226 lung, 23 µM. The TGI in the assay with TK-10 renal stood at 10.7 µM; in the assay on 786-0 renal it was 3.23 µM; with OVCAR-8 ovarian it was 4.74 µM; in the assay on OVCAR-5 ovarian, 19.2 µM.
As for `CNC(=O)c1cc(Oc2ccc(NC(=O)Nc3ccc(Cl)c(OC(F)(F)F)c3)c(F)c2)ccn1`, the GI50 in the assay with MOLT-4 leukemia was 1.19 µM; in the assay on HT29 colon, 1.17 µM; in the assay on SNB-75 CNS it was 5.35 µM; in the assay with HL-60(TB) leukemia it was 1 µM; with OVCAR-4 ovarian it was 1.24 µM; with NCI-H226 lung, 2.5 µM. The figures for the GI50 in the assay on TK-10 renal, in the assay with 786-0 renal and in the assay on OVCAR-5 ovarian were 2.44 µM, 4.65 µM and 3.93 µM, respectively. Further, the TGI is 8.64 µM in the assay with MOLT-4 leukemia; 13.5 µM in the assay on HT29 colon; 13.5 µM in the assay with SNB-75 CNS; 6.53 µM in the assay on HL-60(TB) leukemia; more than 33.2 µM in the assay with OVCAR-4 ovarian; 21.4 µM in the assay on NCI-H226 lung. In addition, the TGI with TK-10 renal, in the assay on 786-0 renal and with OVCAR-5 ovarian was more than 33.2 µM in each case.
